This is an account of results in publication PMC6688628, “N-Substituted Pyrrole Derivative 12m Inhibits HIV-1 Entry by Targeting Gp41 of HIV-1 Envelope Glycoprotein” (Frontiers in Pharmacology, 2019).

Data set [1] has as its system HIV-1 NL4-3(36G)N42T,N43K. As to conditions: T20-resistant NL4-3(36G)N42T,N43K; p24 ELISA; mean ± SD. A general note: ELISA stands for enzyme-linked immunosorbent assay.
The test system of data set [2] is HIV-1 NL4-3(36G)V38E,N42S. The note with it: T20-resistant NL4-3(36G)V38E,N42S; p24 ELISA; mean ± SD.
Data set [3] in a line: XTT assay, U87-CD4-CCR5 cells. The note with it: human. In kind it is cell-based. As for the experimental part:
(§1) The in vitro cell viability of NSPD-12m on HIV-1 target cells (U87-CD4-CXCR4, U87-CD4-CCR5, TZM-bl, and MT-2 cells) and HIV effector cells (CHO-WT cells) was analyzed by an XTT colorimetric assay. Briefly, 100 µl of 5 × 10^5/ml cells was mixed and incubated with 100 µl of NSPD-12m at graded concentrations at 37°C for 3 days. Then, 50 µl of XTT solution (1 mg/ml) containing 0.02 µM of phenazinemethosulphate (PMS) was added to each well, and the cells were incubated at 37°C for another 4 h. The absorbance at 450 nm was measured with an ELISA reader. The 50% cytotoxicity concentrations (CC50) were calculated using the CalcuSyn software ([Chou and Talalay, 1984]).
For orientation: Formazan colour is commonly taken as a measure of viable cells.

In data set [4] the test system is primary HIV-1 strains, including the X4, R5, and X4R5 strains. The experiment in a line: Anti-HIV-1 activity, panel of primary HIV-1 strains. In kind it is cell-based. The note with it: Human immunodeficiency virus 1; range over X4, R5 and X4R5 primary strains; read-out: EC50 values against all tested representative primary HIV-1 strains. As for the experimental part: The HIV-1 replication-inhibiting activity of compounds was determined as previously described ([Li et al., 2013]). Briefly, 1 × 10^4 TZM-bl or MT-2 cells were infected with primary HIV-1 strains or T20-resistant HIV-1 strains (100 TCID50) in 200 µl of RPMI-1640 medium containing 10% FBS in the presence or absence of compounds at graded concentrations for 12 h. The culture medium was replaced with fresh medium without the compounds. After culture for an additional 48 h, supernatants or cells were collected from each well. For the primary HIV-1 strains, the cells were treated using a luciferase kit. Briefly, the cells were lysed with the lysis reagent and were transferred into a 96-well flat-bottom luminometer plate after three washes with phosphate-buffered saline (PBS) (Costar Corning Inc., Corning, NY), followed by addition of the luciferase substrate included in the luciferase kit (Promega Corp., Madison, WI). The luciferase activity was measured immediately by an Ultra 384 microplate reader (Tecan, Research Triangle Park, NC). T20 was used as a positive control. For the T20-resistant HIV-1 strains, 100 µl of culture supernatant was mixed with 100 µl of 5% Triton X-100. […] Absorbance at 450 nm was recorded in an ELISA reader (Ultra 384, Tecan). EC50 values were calculated using the computer program CalcuSyn ([Chou and Talalay, 1984]).

The test system of data set [5] is HIV-1HXB2 (X4 strain) Env pseudotyped virus. The experiment in a line: microbe, parasite or virus in culture. In kind it is cell-based. The note with it: Human immunodeficiency virus 1, single-cycle infection, luciferase.
The test system of data set [6] is HIV-1JR-FL Env mutant K574A pseudovirus. In kind it is cell-based. The note with it: compared with wild-type HIV-1JR-FL pseudovirus.
Data set [7] relates to HIV-1 NL4-3(36G)V38A. As to conditions: T20-resistant NL4-3(36G)V38A; p24 ELISA; mean ± SD.
In data set [8] the test system is HIV-1JR-FL Env mutant W571A pseudovirus. In kind it is cell-based. The note with it: compared with wild-type HIV-1JR-FL pseudovirus.
A short description of data set [9]: XTT assay, U87-CD4-CXCR4 cells. In kind it is cell-based. As to conditions: human. The method, then: as §1
The subject of data set [10] is VSV-G pseudotyped virus. In kind it is cell-based, vesicular stomatitis virus.
Data set [11] concerns HIV-1JR-FL (R5 strain) Env pseudotyped virus. The experiment in a line: microbe, parasite or virus in culture. In kind it is cell-based. The note with it: Human immunodeficiency virus 1, single-cycle infection, luciferase.

The structures appear in SMILES notation.

By IC50 is commonly meant the concentration at which inhibition is half-maximal. Lower therefore signals greater potency in that assay. As usually defined, the IC90 is the concentration at which the effect reaches the 90% level. A lower IC90 goes with an effect from little substance. In general, CC50 refers to the concentration that lowers cell viability or growth by half. Higher therefore signals lower toxicity to the cells. As a reminder, the EC50 is the concentration that produces a half-maximal response.

In the case of `Cc1cc(/C=C2\SC(=S)N(Cc3ccccc3C(F)(F)F)C2=O)c(C)n1-c1ccc(O)c(C(=O)O)c1` [NSPD-12m], the IC50 in data set [1] stood at 4.23 ± 1.92 µM; in data set [2], 5.26 ± 0.762 µM; in data set [7] it was 23.7 ± 5.15 µM. The figures for the 90% effect concentration (IC90) in data set [1], in data set [2] and in data set [7] were 29.7 ± 2.28 µM, 19.6 ± 0.552 µM and 32.5 ± 5.42 µM, respectively. Further, the CC50 at 3 days in data set [3] was determined as 84.7 ± 14.5 µM; in data set [9], 101.4 ± 0.48 µM. The CC90 at 3 days in data set [3] was determined as 102 ± 18.3 µM; in data set [9], 122.5 ± 0.59 µM. The EC50 in data set [4] was 2.03 to 6.85 µM; in [5], approximately 23.1 µM; in data set [11], approximately 14 µM. In addition, the “inhibitory activity against K574A mutant pseudovirus” value in data set [6] is “significant loss”. In data set [8], the “inhibitory activity against W571A mutant pseudovirus” value was “retained the inhibitory activity”. For the same compound, the “inhibition of VSV-G pseudovirus infection” value in [10] is “could not be strongly inhibited”.
